Data on two compounds can be found in US20260153494A1 (AGRICUL TURAL UNIVERSITY OF ATHENS, priority 2023, published 2026).

Values joined by “and” are separate entries in the source; they are usually repeats but may differ in a detail not shown here. Identical values can stand only once.

The term IC50 denotes the concentration that gives 50% inhibition. Higher therefore signals lower potency. Usually Ki stands for the dissociation constant of the complex between target and ligand, obtained from inhibition or displacement.

The test system of data set [1] is Immobilized FGGsh155:CB[8] hexamer (GSTF mutant sh155, FGG-tagged, SEQ ID NO: 2, with cucurbit[8]uril 1:1, on glutaraldehyde-crosslinked chitosan). Kind of data set: Butachlor inhibition (IC50) of immobilized FGGsh155:CB[8]. The format is biochemical. The conditions noted are these: immobilized on chitosan carrier vs free enzyme. How it is done:
FIG. 21 (A-B): Dose-response inhibition curves of FGGsh155:CB[8] due to the herbicide butachlor for the determination of IC50 value. FIG. 21A. before and FIG. 21B. after immobilization. The data represent the mean±SD (N=3).
(§1) The half maximal inhibitory concentration (IC50), namely the inhibitor concentration that leads to 50% inhibition of the enzyme activity of FGGsh155:CB[8], was determined for constant substrate concentrations and varying butachlor concentrations. The utilised substrate concentrations were equal to the kinetic constant value of S0.5 for CDNB and 2.5 times the CDNB concentration for GSH. The correlation between the butachlor concentration from 0 to 600 nM (0 to 0.6 μM) and the remaining activity (%) of the immobilized enzyme was linear, thus standard curves for known herbicide concentrations were developed. The methodology was tested for drinking water samples derived from the Athens water supply network, as well as commercial mineral water (see Example 11). The results were analysed with the Graphpad Prism software.

In data set [2] the test system is sh155 dimer (phi class glutathione S-transferase GSTF mutant derived by DNA shuffling, SEQ ID NO: 2). The data set is described as follows: Kinetic inhibition analysis with butachlor, dimer sh155. It counts as biochemical. The conditions noted are these: constant GSH, variable CDNB. The source says: (§2) FIG. 22 (A-J): Kinetic inhibition analysis of the dimer enzyme sh155 (FIG. 22A, 22C, 22E, 22G, 22I) and the hexamer FGGsh155:CB[8] (FIGS. 22B, 22D, 22F, 22H, 22J). A. & B. Lineweaver-Burk plots for the inhibition of the enzymes by different concentrations of butachlor, at constant concentration of GSH and variable concentration of CDNB. C. & D. Secondary (derivative) graph. The slope values were derived from the Lineweaver-Burk graphs (A) & (B). The intersection point with the x axis corresponds to Ki. E. & F. Secondary (derivative) graph where the data are derived from the Lineweaver-Burk graphs (A) & (B). The intersection point with the x axis corresponds to K. G. & H. Lineweaver-Burk plots for the inhibition of the enzymes by different concentrations of butachlor, at constant concentration of CDNB and variable concentration of GSH. […]. Secondary (derivative) graph. The slope values were derived from the Lineweaver-Burk graphs […], and the intersection point with the x axis corresponds to Ki.
(§3) Kinetic analysis in presence of butachlor aimed to characterize of the type of inhibition, thus the binding site of the inhibitor, as well as to identify possible differences in kinetic behavior between the GST dimer form (sh155) and the hexamer FGGsh155:CB[8] that was used in the immobilization. […]

Data set [3] concerns FGGsh155:CB[8] hexamer (FGG-tagged phi class glutathione S-transferase GSTF mutant sh155, SEQ ID NO: 2, with cucurbit[8]uril 1:1). The data set is described as follows: Kinetic inhibition analysis with butachlor, hexamer FGGsh155:CB[8]. It counts as biochemical. The conditions noted are these: constant GSH, variable CDNB.
Description: as §2, §3

Data set [4] concerns the target FGGsh155:CB[8] (Triticum aestivum, UniProt Z9G7Y6U750). The data set is described as follows: Inhibition of free FGGsh155:CB[8] by butachlor (IC50, kinetic inhibition analysis). It counts as biochemical. How it is done:
as §1, with “The correlation between the butachlor concentration from 0 to 600 nM (0 to 0.6 μM) and the remaining activity (%) of the immobilized enzyme was linear, thus standard curves for known herbicide concentrations were developed.” left out
(§4) Kinetic analysis in presence of butachlor aimed to characterize of the type of inhibition, thus the binding site of the inhibitor, as well as to identify possible differences in kinetic behavior between the GST dimer form (sh155) and the hexamer FGGsh155:CB[8] that was used in the immobilization. […] In the mixed inhibition pattern all of the kinetic constants (Km, kcat) change, and the inhibitor is able to bind to both the free enzyme (Ki) and the enzyme-substrate complex (Ki′) with different affinities. […] This type of inhibition is a sub-case of the mixed inhibition pattern where Ki=Ki′, i.e. the velocity of the reaction is decreased without affecting the affinity with the substrate. In this inhibition type, the inhibitor and the substrate bind independently at different enzyme sites.

Data set [5] has as its target T1, immobilized FGGsh155:CB[8] (Triticum aestivum, UniProt Z9G7Y6U750). Kind of data set: Inhibition of immobilized FGGsh155:CB[8] by butachlor (IC50). The format is biochemical. The settings on record: after immobilization on the chitosan carrier. How it is done:
as §1

In data set [6] the target is sh155 (Triticum aestivum, UniProt Z9G7Y6U750). The data set is described as follows: Kinetic inhibition analysis of dimer sh155 by butachlor. The format is biochemical.
Description: as §4

Data set [7] addresses T1, immobilized FGGsh155:CB[8]. The data set is described as follows: Determination of butachlor in spiked water samples with the immobilized enzyme biosensor. How it is done: as §1
The basis for the detection of the herbicide butachlor in water samples was the determination of inhibition induced in the immobilized enzyme form. […] The linear response of inhibition of the immobilized enzyme due to butachlor was described by the equation y=−101.3x+98.07, R^2=0.991 (FIG. 23A). This observation led to the development of a methodology for determination of butachlor in drinking water samples based on the detection of inhibition as determined by a standard reference curve. Accordingly, standard curves were generated for spiked, with known concentrations of butachlor, samples of drinking water from the Athens' supply network (y=−81.84x+98.81, R^2=0.997) and bottled mineral water (y=−72.69x+99.46, R^2=0.995) (FIG. 23B). The detection range of butachlor with this methodology was determined up to 180 μg/L (600 nM) in water samples, with the acceptable amount of a pesticide in surface water at 1.0 μg/L and in drinking water at 0.1 μg/L (Council Directive 98/83/EC). The detection range up to 0.6 μM (180 μg/L) of the developed biosensor, with detection limit at approximately 31 μg/L for butachlor, achieves comparatively high sensitivity and selectivity.
The methodology was evaluated with recovery experiments of spiked drinking water samples, with known but random concentrations of butachlor within the range of the standard curve. […] The correlation between the added and found butachlor tested concentrations for network supply water (R^2 0.9993, p<0.0001) and mineral water (R^2 0.9987, p<0.0001) is depicted in FIG. 23C & 23D.

For data set [8] the following is noted: buffer; cited from earlier work.
For data set [9], the system named is human lymphocytes. The conditions noted are these: cited from earlier work.
[10] abbreviates: towards CDNB (variable CDNB, constant GSH), binding to free enzyme.
The mark [11] stands for this setting: towards CDNB, binding to enzyme-substrate complex.
[12] abbreviates: towards GSH (variable GSH, constant CDNB).

In the case of `CCCCOCN(C(=O)CCl)c1c(CC)cccc1CC` [Butachlor, 2-chloro-2,6-diethyl-N-butoxymethyl-acetanilide], in [1], the “increase in sensitivity for butachlor after immobilization (IC50 immobilized vs free enzyme)” value was “ten-fold increase in sensitivity”. Moreover, the “type of inhibition towards CDNB” value in data set [2] and in data set [3] was “mixed type inhibition with Ki<Ki′” throughout.

With `CCCCOCN(C(=O)CCl)c1c(CC)cccc1CC` [butachlor, 2-chloro-2,6-diethyl-N-butoxymethyl-acetanilide], the “type of inhibition towards GSH” value in data set [4] and in data set [6] was “non-competitive inhibition” in each case. Also, the “type of inhibition towards the CDNB substrate” value in data set [4] and in [6] was “mixed type inhibition” throughout. Further, the IC50 in data set [4] (free enzyme, before immobilization) turned out to be 5.14 ± 0.16 µM; in data set [5] it was 0.56 ± 0.02 µM. Further, the Ki in [4] (setting [10]) turned out to be 4.42 µM; in [4] (setting [11]), 21.1 µM; in data set [4] (setting [12]), 13.2 µM; in [6] (setting [10]), 5.92 µM; in data set [6] (setting [11]), 22.6 µM; in [6] (setting [12]) it was 13.3 µM. The Found butachlor is 0.046 ± 0.003 µM in data set [7] (Athens water supply network, added 0.05 μM); 0.191 ± 0.001 µM in [7] (Athens water supply network, added 0.2 μM); 0.308 ± 0.008 µM in [7] (Athens water supply network, added 0.3 μM); 0.416 ± 0.005 µM in data set [7] (Athens water supply network, added 0.4 μM); 0.617 ± 0.003 µM in data set [7] (Athens water supply network, added 0.6 μM); 0.095 ± 0.005 µM in [7] (Bottled mineral water, added 0.1 μM). The Found butachlor in [7] (Bottled mineral water, added 0.2 μM) was found to be 0.215 ± 0.005 µM; in [7] (Bottled mineral water, added 0.3 μM), 0.307 ± 0.005 µM; in data set [7] (Bottled mineral water, added 0.4 μM), 0.413 ± 0.012 µM; in data set [7] (Bottled mineral water, added 0.55 μM), 0.56 ± 0.010 µM. In addition, the detection limit entry in data set [7] (developed biosensor) was “approximately 31 μg/L”. Further, the detection range entry in [7] (water samples) is “up to 180 μg/L and ≤ 600 nM”. Also, the half-life result in [8] is “up to 2.5 days”. The “frequency of chromosomal abnormalities” value in data set [9] was “dose-dependent increase in the frequency of chromosomal abnormalities”.
